Assay results taken from patent US20070254895A1, “Crystalline solvate of glucokinase activator” (priority 2006, published 2007).
Several values for one entry are separate records, joined by “and”; a condition that tells them apart may be missing. Equal values may be shown once.

Experiment: Stability samples of IPA solvate analyzed for IPA content and heat of fusion
Type: physicochemical
Description: Differential scanning calorimetry was performed using Perkin Elmer DSC-7 and Diamond DSC, using sealed aluminum pan with a hole in the lid. Sample was heated at a rate of 10° C./min.
The stability sample obtained at various time points and conditions were analyzed for the IPA level and heat of fusion (Table 6). These two variables were plotted against each other to see the correlation (FIG. 17).
Sample was stored in a double PE bag with either metal drum or fiber drum as the container.

[1] = 40° C./75% RH/Fiber drum, double PE bag, 1 month

IPA (% w/w) (25° C./60% RH/Metal, 3 months)	ΔH (J/g) heat of fusion (25° C./60% RH/Metal, 3 months) [J/g]	IPA (% w/w) (25° C./60% RH/Metal, 6 months)	ΔH (J/g) heat of fusion (25° C./60% RH/Metal, 6 months) [J/g]	IPA (% w/w) (40° C./75% RH/Metal, 1 month)	ΔH (J/g) heat of fusion (40° C./75% RH/Metal, 1 month)	IPA (% w/w) (40° C./75% RH/Metal, 3 months)	ΔH (J/g) heat of fusion (40° C./75% RH/Metal, 3 months)	IPA (% w/w) (40° C./75% RH/Metal, 6 months)	ΔH (J/g) heat of fusion (40° C./75% RH/Metal, 6 months)	IPA (% w/w) (50° C./Metal, 1 month)	ΔH (J/g) heat of fusion (50° C./Metal, 1 month)	Structure (SMILES)	other results
12	102.665	11.9	101.346	11.1	89.35 J/g	7.3	53.712 J/g and 51.302 J/g and 47.200 J/g	5	32.201 J/g and 29.011 J/g and 26.128 J/g	12	102.033 J/g and 99.554 J/g	CC(C)O.CS(=O)(=O)c1ccc([C@@H](C[C@H]2CCC(=O)C2)C(=O)Nc2cnccn2)cc1Cl [Lot 1]	IPA (% w/w) (5° C./Fiber, 6 months): 12.2 % w/w; ΔH (J/g) heat of fusion (5° C./Fiber, 6 months): 104.917 J/g; IPA (% w/w) (25° C./60% RH/Fiber, 3 months): 12 % w/w; ΔH (J/g) heat of fusion (25° C./60% RH/Fiber, 3 months): 99.861 J/g; IPA (% w/w) (25° C./60% RH/Fiber, 6 months): 12 % w/w; ΔH (J/g) heat of fusion (25° C./60% RH/Fiber, 6 months): 98.112 J/g; IPA (% w/w) (30° C./60% RH/Fiber, 10 months): 11.2 % w/w; ΔH (J/g) heat of fusion (30° C./60% RH/Fiber, 10 months): 87.929 J/g; IPA (% w/w) (30° C./60% RH/Metal, 10 months): 11.5 % w/w; ΔH (J/g) heat of fusion (30° C./60% RH/Metal, 10 months): 99.538 J/g; IPA (% w/w) [1]: 8.9 % w/w; ΔH (J/g) heat of fusion [1]: 65.084 J/g; IPA (% w/w) (40° C./75% RH/Fiber, 3 months): 4.4 % w/w; ΔH (J/g) heat of fusion (40° C./75% RH/Fiber, 3 months): 28.733 J/g and 29.404 J/g and 26.416 J/g and 24.713 J/g; IPA (% w/w) (40° C./75% RH/Fiber, 6 months): 4 % w/w; ΔH (J/g) heat of fusion (40° C./75% RH/Fiber, 6 months): 26.529 J/g; IPA (% w/w) (50° C./Fiber, 1 month): 11.8 % w/w; ΔH (J/g) heat of fusion (50° C./Fiber, 1 month): 105.445 J/g
12	104.847	12	102.406	11.6	105.006 J/g and 102.972 J/g	11.3	103.326 J/g and 103.52 J/g	8.4	65.867 J/g and 67.851 J/g and 61.796 J/g	12	100.639 J/g	CC(C)O.CS(=O)(=O)c1ccc([C@@H](C[C@H]2CCC(=O)C2)C(=O)Nc2cnccn2)cc1Cl [Lot 3]	IPA (% w/w) (5° C./Metal, 3 months): 12.1 % w/w; ΔH (J/g) heat of fusion (5° C./Metal, 3 months): 107.801 J/g; IPA (% w/w) (5° C./Metal, 6 months): 12.1 % w/w; ΔH (J/g) heat of fusion (5° C./Metal, 6 months): 106.157 J/g
